Source: ChEMBL document CHEMBL4350974, “Synthesis and biological evaluation of methylpyrimidine-fused tricyclic diterpene analogs as novel oral anti-late-onset hypogonadism agents” (Eur J Med Chem, 2019)
Active and inactive are the calls of the source. No cut-off for these calls is given here.

Legend:
[1] = Cytotoxicity against human NCM460 cells assessed as reduction in cell viability measured after 24 hrs by sulforhodamine B assay; format: cell-based
[2] = Mean residence time in Sprague-Dawley rat at 50 mg/kg, po by LC/MS analysis; format: ADME, organism-based; conditions: in vivo
[3] = Cytotoxicity against mouse TM3 cells assessed as reduction in cell viability measured after 24 hrs by sulforhodamine B assay; format: cell-based
Rattus norvegicus [4] = test: Anti late-onset hypogonadism activity in cyclophosphamide-induced Sprague-Dawley rat model of partial androgen deficiency assessed as weight of testis at 100 mg/kg, po qd administered for 4 weeks (reference value: 1.47 +/- 0.13 g); format: functional
Rattus norvegicus [5] = test: Anti late-onset hypogonadism activity in cyclophosphamide-induced Sprague-Dawley rat model of partial androgen deficiency assessed as weight of seminal vesicles at 100 mg/kg, po qd administered for 4 weeks (reference value: 1.33 +/- 0.26 g); format: functional
[6] = Toxicity in cyclophosphamide - induced Sprague-Dawley rat model of partial androgen deficiency assessed as effect on heart at 50 to 100 mg/kg by HE staining based histopathological analysis; format: organism-based; conditions: in vivo
TM3 [7] = test: Induction of testosterone production in mouse TM3 cells assessed as increase in StAR mRNA expression level after 24 hrs by qRT-PCR analysis; format: functional, cell-based
TM3 [8] = test: Induction of testosterone production in mouse TM3 cells assessed as increase in 3beta-HSD mRNA expression level after 24 hrs by qRT-PCR analysis; format: functional, cell-based
[9] = Toxicity in cyclophosphamide - induced Sprague-Dawley rat model of partial androgen deficiency assessed as sperm viability at 100 mg/kg by semen analysis (reference value: 95.1 +/- 3.2 %); format: organism-based; conditions: in vivo
TM3 [10] = test: Induction of testosterone production in mouse TM3 cells assessed as increase in StAR protein expression level after 24 hrs by Western blot analysis; format: functional, cell-based
[11] = Clearance in Sprague-Dawley rat at 50 mg/kg, po up to 12 hrs by LC/MS analysis; format: ADME, organism-based; conditions: in vivo
Rattus norvegicus [12] = test: Anti late-onset hypogonadism activity in cyclophosphamide-induced Sprague-Dawley rat model of partial androgen deficiency assessed as increase in serum total testosterone level at 50 to 100 mg/kg, po qd administered for 4 weeks and measured every 2 weeks by ELISA; format: functional, organism-based
Rattus norvegicus [13] = test: Anti late-onset hypogonadism activity in cyclophosphamide-induced Sprague-Dawley rat model of partial androgen deficiency assessed as intratesticular testosterone level at 50 mg/kg, po qd administered for 4 weeks by ELISA (reference value: 137.99 +/- 19.27 nmol/L); format: functional
TM3 [14] = test: Induction of autophagy in mouse TM3 cells assessed as dephosphorylation of mTOR at 10 to 100 uM by Western blot analysis; format: functional, cell-based
Rattus norvegicus [15] = test: Anti late-onset hypogonadism activity in cyclophosphamide-induced Sprague-Dawley rat model of partial androgen deficiency assessed as weight of seminal vesicles at 50 mg/kg, po qd administered for 4 weeks (reference value: 1.33 +/- 0.26 g); format: functional
TM3 [16] = test: Induction of testosterone production in mouse TM3 cells assessed as increase in testosterone level at 20 uM measured after 24 hrs by ELISA relative to control; format: functional
[17] = Toxicity in cyclophosphamide - induced Sprague-Dawley rat model of partial androgen deficiency assessed as sperm motility at 100 mg/kg by semen analysis (reference value: 88.3 +/- 7.3 %); format: organism-based; conditions: in vivo
TM3 [18] = test: Induction of autophagy in mouse TM3 cells assessed as increase in LC3-II protein level at 10 to 100 uM by Western blot analysis; format: functional, cell-based
Rattus norvegicus [19] = test: Effect on sperm production in cyclophosphamide - induced Sprague-Dawley rat model of partial androgen deficiency assessed as increase in SYCP3 protein expression at 50 to 100 mg/kg by immunohistochemical analysis; format: functional, organism-based
TM3 [20] = test: Induction of autophagy in mouse TM3 cells assessed as phosphorylation of AMPK at 10 to 100 uM by Western blot analysis; format: functional, cell-based
[21] = Cytotoxicity against mouse NIH/3T3 cells assessed as reduction in cell viability measured after 24 hrs by sulforhodamine B assay; format: cell-based, NIH3T3
[22] = Toxicity in cyclophosphamide - induced Sprague-Dawley rat model of partial androgen deficiency assessed as effect on liver at 50 to 100 mg/kg by HE staining based histopathological analysis; format: organism-based; conditions: in vivo
[23] = Toxicity in cyclophosphamide - induced Sprague-Dawley rat model of partial androgen deficiency assessed as effect on kidney at 50 to 100 mg/kg by HE staining based histopathological analysis; format: organism-based; conditions: in vivo
[24] = Mean residence time in Sprague-Dawley rat at 5 mg/kg, iv by LC/MS analysis; format: ADME, organism-based; conditions: in vivo
Rattus norvegicus [25] = test: Anti late-onset hypogonadism activity in cyclophosphamide-induced Sprague-Dawley rat model of partial androgen deficiency assessed as inhibition of Leydig cells apoptosis at 50 to 100 mg/kg, po qd administered for 4 weeks by DAPI staining based TUNEL assay; format: functional, organism-based
Rattus norvegicus [26] = test: Anti late-onset hypogonadism activity in cyclophosphamide-induced Sprague-Dawley rat model of partial androgen deficiency assessed as increase in free testosterone level at 50 to 100 mg/kg, po qd administered for 4 weeks and measured every 2 weeks by ELISA; format: functional, organism-based
[27] = Toxicity in cyclophosphamide - induced Sprague-Dawley rat model of partial androgen deficiency assessed as effect on spleen at 50 to 100 mg/kg by HE staining based histopathological analysis; format: organism-based; conditions: in vivo
[28] = Toxicity in cyclophosphamide - induced Sprague-Dawley rat model of partial androgen deficiency assessed as sperm motility at 50 mg/kg by semen analysis (reference value: 88.3 +/- 7.3 %); format: organism-based; conditions: in vivo
[29] = Volume of distribution in Sprague-Dawley rat plasma at 50 mg/kg, po up to 12 hrs by LC/MS analysis; format: ADME, organism-based; conditions: in vivo
TM3 [30] = test: Induction of testosterone production in mouse TM3 cells assessed as increase in 3beta-HSD protein expression level after 24 hrs by Western blot analysis; format: functional, cell-based
[31] = Cmax in Sprague-Dawley rat plasma at 50 mg/kg, po up to 12 hrs by LC/MS analysis; format: ADME, organism-based; design: dose 50 mg/kg, route oral
[32] = AUC (0 to t) in Sprague-Dawley rat plasma at 50 mg/kg, po up to 12 hrs by LC/MS analysis; format: ADME, organism-based; design: dose 50 mg/kg, time < 12 hr, route oral
[33] = Half-life in Sprague-Dawley rat plasma at 50 mg/kg, po up to 12 hrs by LC/MS analysis; format: ADME, organism-based
[34] = Toxicity in cyclophosphamide-induced Sprague-Dawley rat model of partial androgen deficiency assessed as decrease in body weight at 50 to 100 mg/kg, po qd administered for 4 weeks and measured every 3 days; format: organism-based; conditions: in vivo
Rattus norvegicus [35] = test: Anti late-onset hypogonadism activity in cyclophosphamide-induced Sprague-Dawley rat model of partial androgen deficiency assessed as increase in LC3 expression at 50 to 100 mg/kg by immunohistochemical analysis; format: functional, organism-based
TM3 [36] = test: Induction of autophagy in mouse TM3 cells assessed as increase in ATG5 protein level at 10 to 100 uM by Western blot analysis; format: functional, cell-based
[37] = AUC (0 to infinity) in Sprague-Dawley rat plasma at 5 mg/kg, iv by LC/MS analysis; format: ADME, organism-based; design: dose 5 mg/kg, route intravenous, time infinity

In the case of CNC(=O)c1cc2c(cc1OC)[C@@]1(C)Cc3cnc(C)nc3C(C)(C)C1CC2 (mixture of isomers), the CC50 at 24 h [1] is reported as greater than 200 µM, the MRT [2] is reported as 7.76 h and the CC50 at 24 h [3] is reported as greater than 200 µM. For the same molecule, the Activity (Rattus norvegicus [4]) was 1.66 g, the Activity (Rattus norvegicus [5]) was 1.68 g and the Activity [6] was “Non-Toxic”. The Activity (TM3 [7]) was “Dose-dependent effect”, the Activity (TM3 [8]) was “Dose-dependent effect” and the Activity [9] was 98%. For the same molecule, the Activity (TM3 [10]) was “Dose-dependent effect”, the CL/F [11] was 270 mL/min/kg and the Activity (Rattus norvegicus [12]) was “Active”. The Activity (Rattus norvegicus [13]) was 180.24 nmol/L, the Activity (TM3 [14]) was “Active” and the Activity (Rattus norvegicus [15]) was 1.53 g. For the same molecule, the Activity (TM3 [16]) was 174.6%, the Activity [17] was 94.6% and the Activity (TM3 [18]) was “Active”. The Activity (Rattus norvegicus [19]) was “Active”, the Activity (TM3 [20]) was “Active” and the CC50 at 24 h [21] was greater than 200 µM. The Activity [22] was “Non-Toxic”, the Activity [23] was “Non-Toxic” and the MRT [24] was 9.92 h. The inhibition (Rattus norvegicus [25]) was “Active”, the Activity (Rattus norvegicus [26]) was “Active” and the Activity [27] was “Non-Toxic”. The Activity [28] was 92.6%, the Vd [29] was 106.27 L/kg and the Activity (TM3 [30]) was “Dose-dependent effect”. For the same molecule, the Cmax [31] was 239 ng/mL, the AUC(0-t) at 12 h [32] was 3050 ng·h/mL and the half-life [33] was 4.44 h. For the same molecule, the Activity [34] was “Non-Toxic”, the Activity (Rattus norvegicus [35]) was “Active” and the Activity (TM3 [36]) was “Active”. The AUC(0-inf) [37] was 551 ng·h/mL.
